From patent publication US20120010262A1, “CRYSTALLINE POLYMORPHIC FORMS OF AN ANTIDIABETIC COMPOUND” (priority 2009, published 2012)

Assay: Solid-form stability of crystalline anhydrate Form II (conversion to Anhydrate III)
Format: physicochemical
Settings: converts to crystalline Anhydrate III when heated to 160° C. for 1 hour or in solutions of ethanol, isoamyl alcohol and isopropyl acetate
Method: Anhydrate Form II is prepared from a solution of the crystalline hydrate form at a concentration of >100 mg/mL in acetonitrile. The solution is sonicated for approximately 5 minutes to induce crystallization. Anhydrate H is metastable. It converts to crystalline Anhydrate III when heated to 160° C. for 1 hour or in solutions of ethanol, isoamyl alcohol and isopropyl acetate. The X Ray Powder Diffraction peaks are shown below in Table 4.

physical stability of the crystalline form: metastable
SMILES: CCC[C@H](c1ccc(C(=O)NCCC(=O)O)cc1)[C@H](c1ccc(Cl)cc1)c1c[nH]c2c(F)cc(C)cc12 [Anhydrate H, N-(4-{(1S)-1-[(R)-(4-chlorophenyl)(7-fluoro-5-methyl-1H-indol-3-yl)methyl]butyl}benzoyl)-β-alanine]
